Laboratory results from patent publication US12655125B2 (SIRONAX LTD., priority 2020, dated 2026).
Like-named read-outs stand apart in the source and are kept apart here.

Tested on: HT-29 cells
Assay: HT29 Cells 0FBS Assay In Vitro (TNF-α/SMAC mimetic/zVAD-FMK induced necroptosis, CellTiter-Glo cell viability)
Type: cell-based
Conditions: Homo sapiens, HT-29 cells, FBS free medium, TNF-α (10 ng/ml), SMAC mimetic (6 uM), zVAD-FMK (10 μM), 20 hours, geometric mean EC50
Description: Protocol for HT29 Cells 0FBS Assay In Vitro
• Cell line: HT-29 (ATCC® HTB-38™) • Culture medium: McCOY's 5 A, Gibco, Cat No. 16600-082 • FBS, Gibco, Cat No. 10099-141C • Trypsin: Gibco, Cat No. 25200-056 • DMSO: Sigma, Cat No. 67-68-5, 1 L • Assay plate: Corning #3903 • Compound dilution plate: Corning #3357 • Inducers: TNFα, GenScript, Cat No. ZO1001-50, • SmacM, Cat. No., HY-15989, MedChemExpress (MCE) • Z_VAD FMK, TargetMol, T6013 • Cell Titer-Glo® Luminescent Cell Viability Assay Kit: Promega, Cat No. G7573 • EnVision: PerkinElmer, 2105-0010 2. Cell Seeding of HT-29 Cells • 1) HT-29 cells were checked every day to make sure they are healthy and growing as expected. They were split sub-culturing when were approximately 80% confluent. • 2) First pre-warm the culture medium of McCOY's 5 A medium (Gibco, Cat No. 16600-082) with 10% FBS (Gibco, Cat No. 10099-141C) in 37° C. water bath for at least 30 min. • 3) Growing cells to desired level of confluency 80% in a T75 flask, aspirate the medium, and wash with warm PBS two times. • 4) Add 2-3 ml fresh warm trypsin (Gibco, Cat No. 25200-056) solution. Transfer the flask to a 37° C. incubator. • 5) After 5 minutes, tap the side of the flask, and examine the flask under a microscope for lifting. If necessary, return the cells to the incubator for an additional 5-10 minutes, with occasional tapping, until lifting is complete. • 6) Quickly neutralize the trypsin reaction by adding 6-9 ml cell culture medium, then transfer the cells to sterile 15 ml conical tubes. Pellet the cells by centrifugation at 300×g for 7 minutes, then decant the supernatant. • 7) Resuspend the cells in fresh cell culture medium. Do cell counting with hemocytometer. • 8) Seed 100 μl of 5,000 cells into each well of the sterile 96-well cell culture plate (Corning 3903) and culture overnight at 37° C. with 5% C02. 3. Compounds Titration and Treatment of HT-29 Cells • 1) All batches of compounds (CPDs) (e.g., compound 1-281) were dissolved in DMSO (Dimethyl sulfoxide) as 20 mM stock solution. • 2) Take 3 ul 20 mM stock solution of CPDs to 27 ul DMSO and mix well, continue the titration ratio of 1:3 (20 ul CPDs+40 ul DMSO), e.g., to give solutions of CPDS at 6.6 mM, 2.2 mM, etc., till the 10 points end. • 3) Take out assay plates with HT-29 cells from incubator, remove all culture medium then wash 1 time with 1×PBS, and change fresh McCOY's 5 A medium of FBS free with a cocktail of TNF-α (10 ng/ml), the SMAC mimetic (6 uM) and zVAD-FMK (10 μM) to stimulate the HT-29 cells to increase pRIPK1 levels and necroptosis. • 4) Add 0.5 μL of the diluted compound to the corresponding 96-well assay plates. • 5) Incubate the assay plates for 20 hours at 37° C. with 5% C02. 4. Performing Cell Viability Detection of HT-29 Cells after Treated with Compounds • 1) The CellTiter-Glo® Luminescent Cell Viability Assay was employed to detect the ATP levels of viable HT-29 cells. • 2) Equilibrate the CellTiter-Glo® buffer and the lyophilized substrate to room temperature prior to use. • 3) Resuspend the CellTiter-Glo® substrate with CellTiter-Glo® buffer, mix by gently vortexing to obtain a homogeneous solution. • 4) Pipette 20 μl the enzyme/substrate mixture by multi-channel pipette into the 96-well assay plates from step 5) under the Compounds titration and treatment stage. • 5) Place the plates on an orbital shaker and mix the contents for 3 minutes to induce cell lysis. • 6) Then allow the plates to incubate at room temperature for 10 minutes to stabilize luminescent signal. • 7) Read and record luminescence signal with EnVision. • 8) The geometric mean EC50 of the compounds were calculated from points response dose with duplicate. In Tables 2 and 4, activity is provided as follows: +++=0.1 nM≤EC50<100 nM; ++=100 nM≤EC50<1000 nM; +=1000 nM≤EC50<10000 nM.

[1] = read-out: Cell activity (EC50) of Compounds 117-281
[2] = read-out: Cell activity (EC50) of Compounds 1-116

| SMILES | EC50 [1] | EC50 [2] |
| --- | --- | --- |
| Cc1nn(-c2cc(OC3CN(C(=O)N4N=CC[C@H]4c4cc(F)cc(F)c4)C3)c(F)cn2)c(C)c1CC(=O)O [compound 278, (S)-2-(1-(4-((1-(5-(3,5-difluorophenyl)-4,5-dihydro-1H-pyrazole-1-carbonyl)azetidin-3-yl)oxy)-5-fluoropyridin-2-yl)-3,5-dimethyl-1H-pyrazol-4-yl)acetic acid] | 100 to 1000 nM |  |
| Cc1nn(C)c(N)c1-c1cc(OC2CN(C(=O)N3N=CC[C@H]3c3cc(F)cc(F)c3)C2)c(F)cn1 [compound 210, (S)-(3-((2-(5-amino-1,3-dimethyl-11H-pyrazol-4-yl)-5-fluoropyridin-4-yl)oxy)azetidin-1-yl)(5-(3,5-difluorophenyl)-4,5-dihydro-1H-pyrazol-1-yl)methanone] | 0.1 to 100 nM |  |
| Cc1nn(-c2cc(OC3CN(C(=O)N4N=CC[C@H]4c4cc(F)cc(F)c4)C3)c(F)cn2)c(C)c1C(=O)NC1CCC1 [compound 249, (S)—N-cyclobutyl-1-(4-((1-(5-(3,5-difluorophenyl)-4,5-dihydro-1H-pyrazole-1-carbonyl)azetidin-3-yl)oxy)-5-fluoropyridin-2-yl)-3,5-dimethyl-1H-pyrazole-4-carboxamide] | 0.1 to 100 nM |  |
| COCc1c(C)nn(-c2cc(OC3CN(C(=O)N4N=CC[C@H]4c4cc(F)cc(F)c4)C3)c(F)cn2)c1C [compound 155, (S)-(5-(3,5-difluorophenyl)-4,5-dihydro-1H-pyrazol-1-yl)(3-((5-fluoro-2-(4-(methoxymethyl)-3,5-dimethyl-1H-pyrazol-1-yl)pyridin-4-yl)oxy)azetidin-1-yl)methanone] | 0.1 to 100 nM |  |
| Cc1nn(C)cc1-c1ncc(F)c(OC2CN(C(=O)N3N=CC[C@H]3c3cc(F)cc(F)c3)C2)n1 [compound 37, (S)-(5-(3,5-difluorophenyl)-4,5-dihydro-1H-pyrazol-1-yl)(3-((2-(1,3-dimethyl-1H-pyrazol-4-yl)-5-fluoropyrimidin-4-yl)oxy)azetidin-1-yl)methanone] |  | 0.1 to 100 nM |
| Cc1nn(C2CCOCC2)c(C)c1-c1cc(OC2CN(C(=O)N3N=CC[C@H]3c3cc(F)cc(F)c3)C2)c(F)cn1 [compound 157, (S)-(5-(3,5-difluorophenyl)-4,5-dihydro-1H-pyrazol-1-yl)(3-((2-(3,5-dimethyl-1-(tetrahydro-2H-pyran-4-yl)-1H-pyrazol-4-yl)-5-fluoropyridin-4-yl)oxy)azetidin-1-yl)methanone] | 0.1 to 100 nM |  |
| Cc1c(-c2cc(OC3CN(C(=O)N4N=CC[C@H]4c4cc(F)cc(F)c4)C3)c(F)cn2)nn(C)c1C(=O)NCCO [compound 265, (S)-3-(4-((1-(5-(3,5-difluorophenyl)-4,5-dihydro-1H-pyrazole-1-carbonyl)azetidin-3-yl)oxy)-5-fluoropyridin-2-yl)-N-(2-hydroxyethyl)-1,4-dimethyl-1H-pyrazole-5-carboxamide] | 0.1 to 100 nM |  |
| Cc1n[nH]c(C)c1-c1cc(OC2CN(C(=O)N3N=CC[C@H]3c3cc(F)cc(F)c3)C2)c(F)cn1 [compound 92, (S)-(5-(3,5-difluorophenyl)-4,5-dihydro-1H-pyrazol-1-yl)(3-((2-(3,5-dimethyl-1H-pyrazol-4-yl)-5-fluoropyridin-4-yl)oxy)azetidin-1-yl)methanone] |  | 0.1 to 100 nM |
| COC(=O)c1cc(C)n(-c2cc(OC3CN(C(=O)N4N=CC[C@H]4c4cc(F)cc(F)c4)C3)c(F)cn2)c1C [compound 129, methyl (S)-1-(4-((1-(5-(3,5-difluorophenyl)-4,5-dihydro-1H-pyrazole-1-carbonyl)azetidin-3-yl)oxy)-5-fluoropyridin-2-yl)-2,5-dimethyl-1H-pyrrole-3-carboxylate] | 0.1 to 100 nM |  |
| Cn1ccnc1-c1ccc(F)c(OC2CN(C(=O)N3N=CC[C@H]3c3cc(F)cc(F)c3)C2)n1 [compound 5, (S)-(5-(3,5-difluorophenyl)-4,5-dihydro-1H-pyrazol-1-yl)(3-((3-fluoro-6-(1-methyl-1H-imidazol-2-yl)pyridin-2-yl)oxy)azetidin-1-yl)methanone] |  | 0.1 to 100 nM |
| Cc1csnc1-c1ncc(F)c(OC2CN(C(=O)N3N=CC[C@H]3c3cc(F)cc(F)c3)C2)n1 [compound 18, (S)-(5-(3,5-difluorophenyl)-4,5-dihydro-1H-pyrazol-1-yl)(3-((5-fluoro-2-(4-methylisothiazol-3-yl)pyrimidin-4-yl)oxy)azetidin-1-yl)methanone] |  | 0.1 to 100 nM |
| Cc1cccn1-c1ncc(F)c(OC2CN(C(=O)N3N=CC[C@H]3c3cc(F)cc(F)c3)C2)n1 [compound 102, (S)-(5-(3,5-difluorophenyl)-4,5-dihydro-1H-pyrazol-1-yl)(3-((5-fluoro-2-(2-methyl-1H-pyrrol-1-yl)pyrimidin-4-yl)oxy)azetidin-1-yl)methanone] |  | 0.1 to 100 nM |
| CCC(=O)Nc1cnn(C)c1-c1cc(OC2CN(C(=O)N3N=CC[C@H]3c3cc(F)cc(F)c3)C2)c(F)cn1 [compound 58, (S)—N-(5-(4-((1-(5-(3,5-difluorophenyl)-4,5-dihydro-1H-pyrazole-1-carbonyl)azetidin-3-yl)oxy)-5-fluoropyridin-2-yl)-1-methyl-1H-pyrazol-4-yl)propionamide] |  | 0.1 to 100 nM |
| Cc1nn(-c2cc(OC3CN(C(=O)N4N=CC[C@H]4c4cc(F)cc(F)c4)C3)c(F)cn2)c(C)c1SCc1ccccc1 [compound 227, (S)-(3-((2-(4-(benzylthio)-3,5-dimethyl-1H-pyrazol-1-yl)-5-fluoropyridin-4-yl)oxy)azetidin-1-yl)(5-(3,5-difluorophenyl)-4,5-dihydro-1H-pyrazol-1-yl)methanone] | 0.1 to 100 nM |  |
| Cc1nn(-c2cc(OC3CN(C(=O)N4N=CC[C@H]4c4cc(F)cc(F)c4)C3)c(F)cn2)c(C)c1C(=O)NO [compound 252, (S)-1-(4-((1-(5-(3,5-difluorophenyl)-4,5-dihydro-1H-pyrazole-1-carbonyl)azetidin-3-yl)oxy)-5-fluoropyridin-2-yl)-N-hydroxy-3,5-dimethyl-1H-pyrazole-4-carboxamide] | 0.1 to 100 nM |  |
| Cc1nn(C)cc1-c1cc(OC2CN(C(=O)N3N=CC[C@H]3c3cc(F)cc(F)c3)C2)c(F)cn1 [compound 38, (S)-(5-(3,5-difluorophenyl)-4,5-dihydro-1H-pyrazol-1-yl)(3-((2-(1,3-dimethyl-1H-pyrazol-4-yl)-5-fluoropyridin-4-yl)oxy)azetidin-1-yl)methanone] |  | 0.1 to 100 nM |
| Cn1ncc(C(=O)N2CCOCC2)c1-c1cc(OC2CN(C(=O)N3N=CC[C@H]3c3cc(F)cc(F)c3)C2)c(F)cn1 [compound 77, (S)-(5-(3,5-difluorophenyl)-4,5-dihydro-1H-pyrazol-1-yl)(3-((5-fluoro-2-(1-methyl-4-(morpholine-4-carbonyl)-1H-pyrazol-5-yl)pyridin-4-yl)oxy)azetidin-1-yl)methanone] |  | 1000 to 10000 nM |
| Cc1n[nH]c(C)c1-c1ccc(F)c(OC2CN(C(=O)N3N=CC[C@H]3c3cc(F)cc(F)c3)C2)c1 [compound 113, (S)-(5-(3,5-difluorophenyl)-4,5-dihydro-1H-pyrazol-1-yl)(3-(5-(3,5-dimethyl-1H-pyrazol-4-yl)-2-fluorophenoxy)azetidin-1-yl)methanone] |  | 0.1 to 100 nM |
